What was measured:
Format in all cases: functional, cell-based
[1] = Cytotoxicity against human SKOV3 cells assessed as cell growth inhibition by MTT assay; conditions: SK-OV-3
[2] = Cytotoxicity against human DU145 cells assessed as cell growth inhibition by MTT assay; conditions: DU-145
[3] = Cytotoxicity against human MCF7 cells assessed as cell growth inhibition by MTT assay

Question: For `COc1cccc2c1C(=O)c1c(O)c3c(c(O)c1C2=O)C[C@@](O)(C(=O)CO)C[C@@H]3O[C@H]1C[C@H](N)[C@H](O)[C@H](C)O1` [DOXORUBICIN], which IC50 [1] is on record?
Answer: The IC50 was 700 nM.

Question: And the IC50 [2]?
Answer: Its IC50 is 700 nM.

Question: What about the IC50 [3] of the same compound?
Answer: Its IC50 is 800 nM.

Reference: ChEMBL document CHEMBL3853298, “Total synthesis and in vitro bioevaluation of clavaminols A, C, H & deacetyl clavaminol H as potential chemotherapeutic and antibiofilm agents” (Eur J Med Chem, 2016)
